Source: US8163753B2, “2,3-dihydro-6-nitroimidazo (2,1-b) oxazole compounds for the treatment of tuberculosis” (priority 2003, dated 2012)
In brackets after ≈: the same amount, converted by molar mass.

Key:
[1] = system: Mycobacterium tuberculosis (H37Rv strain); conditions: in vitro, literature report; cited from earlier work
M. avium = conditions: used at 250 μg/ml or less; cited from earlier work
M. intracellulare = conditions: used at 250 μg/ml or less; cited from earlier work
M. fortuitum = conditions: used at 250 μg/ml or less; cited from earlier work
M. tuberculosis Kurono = experiment: Antibacterial test, agar-plate dilution method (minimum inhibitory concentration), Test Example 2; format: cell-based; conditions: 7H11 agar medium, 37° C. for 14 days; for MIC: Mycobacterium tuberculosis, 336 h

Structure (SMILES) | melting point | other results
CCC1Cn2cc([N+](=O)[O-])nc2O1 (stereo not drawn) [CGI-17341] |  | bactericidal action to Mycobacterium tuberculosis (H37Rv strain) [1]: has a bactericidal action; activity to M. avium (M. avium): does not have the activity; activity to M. intracellulare (M. intracellulare): does not have the activity; activity to M. fortuitum (M. fortuitum): does not have the activity
C[C@]1(COc2ccc(N3CCN(CCOc4ccc(OC(F)(F)F)cc4)CC3)cc2)Cn2cc([N+](=O)[O-])nc2O1 [Example 9, (R)-2-methyl-6-nitro-2-(4-(4-(2-(4-trifluoromethoxyphenoxy)ethyl)piperazine-1-yl)phenoxymethyl)-2,3-dihydroimidazo[2,1-b]oxazole] |  | MIC (M. tuberculosis Kurono): 0.012 µg/mL (≈ 0.0213 µM)
CN(C(=O)OC(C)(C)C)C1CCN(Cc2ccc(OCC3(C)Cn4cc([N+](=O)[O-])nc4O3)cc2)CC1 (stereo not drawn) | 138.5 to 141.9 °C | 
O=[N+]([O-])c1cn2c(n1)O[C@@H](COc1ccc(N3CCC(Cc4ccc(OC(F)(F)F)cc4)CC3)cc1)C2 | 160.5 to 164 °C | 
C[C@]1(COc2ccc(N3CCC(Nc4cc(Cl)cc(Cl)c4)CC3)cc2)Cn2cc([N+](=O)[O-])nc2O1 | 122 to 124 °C | 
C[C@]1(COc2ccc(N3CCC(Oc4ccc(OC(F)(F)F)cc4)CC3)nc2)Cn2cc([N+](=O)[O-])nc2O1 | 185.9 to 186.7 °C | 
CCCc1ccc(N(C)C2CCN(c3ccc(OC[C@@]4(C)Cn5cc([N+](=O)[O-])nc5O4)cc3)CC2)cc1 | 198 to 199 °C | 
O=[N+]([O-])c1cn2c(n1)O[C@@H](COc1ccc(N3CCC(OCc4ccc(OC(F)(F)F)cc4)CC3)cc1)C2 | 188.3 to 189.4 °C | 
C[C@]1(COc2ccc3nc(N4CCN(Cc5ccc(OC(F)(F)F)cc5)CC4)sc3c2)Cn2cc([N+](=O)[O-])nc2O1 [Example 1, (R)-2-methyl-6-nitro-2-(2-(4-(4-trifluoromethoxybenzyl)-piperazine-1-yl)benzothiazole-6-yloxymethyl)-2,3-dihydroimidazo[2,1-b]oxazole] | 205.6 to 207.4 °C | MIC (M. tuberculosis Kurono): 0.2 µg/mL (≈ 0.339 µM)
CC1(COc2ccc(N3CCC(COCc4ccc(OC(F)(F)F)cc4)CC3)cc2)Cn2cc([N+](=O)[O-])nc2O1 (stereo not drawn) | 153.1 to 153.7 °C | 
C[C@]1(COc2ccc(N3CCC(CC=Cc4ccc(C(F)(F)F)cc4)CC3)cc2)Cn2cc([N+](=O)[O-])nc2O1 [Example 8, (R)-2-methyl-6-nitro-2-(4-(4-(3-(4-trifluoromethyphenyl)-2-propenyl)piperidine-1-yl)phenoxymethyl)-2,3-dihydroimidazo[2,1-b]oxazole] |  | Minimum Inhibitory Concentration (M. tuberculosis Kurono): 0.006 µg/mL
